Data published in patent US20230382926A1, “COMPOUNDS AND USES THEREOF” (The University of The West Indies, priority 2022, published 2023).

Experiments:
Assay in all cases: Rescue concentration, modified checkerboard MIC adjuvant assay
Format in all cases: cell-based
[1] = tested on: Acinetobacter baumannii clinical isolate 9978; conditions: A. baumannii clinical isolate 9978
Protocol: (§1) Reference microorganisms as well as clinical strains used to evaluate the antimicrobial adjuvant properties of SP-6azaBIM 125 and SP-6azaBIM 136 are listed in Table 3. Clinical strains of bacteria were kindly provided by the Faculty of Medical Sciences, UWI, St. Augustine, Trinidad. All bacterial cultures were cryopreserved in 30% glycerol/Brain Heart Infusion (BHI) at −80° C. Cultures were revived on BHI agar (Oxoid Ltd, England) and maintained at 4° C. until needed.
(§2) Prior to each experiment, cultures were streaked onto clean BHI agar plates and incubated at 35° C. for 24 hours. Colonies of the respective cultures were selected and inoculated in phosphate buffer saline (pH 7.5) to a 0.5 McFarland turbidity standard (equivalent to 10^8 CFU mL^−1). For inhibitory studies the bacterial suspensions were diluted 1:100 in cation-adjusted Mueller Hinton Broth (ca-MHB) (Oxoid Ltd, England). Fastidious bacteria including Streptococcus pneumoniae, Haemophilus infuenzae and Clostridium difficile were maintained on BHI agar with 5% defibrinated sheep blood and diluted in ca-MHB with 5% defibrinated sheep blood.
(§3) Antibiotic powders used in this study were purchased from Sigma Aldrich Ltd. (WI, USA). Antibiotic stock solutions were made at 50 mg mL^−1 according to Andrews (2001) and working solutions were prepared 24 h before use and stored at 4° C.
(§4) HCl salts of the of the SP-azaBIM test compounds were prepared prior to testing and stored at 4° C. Working preparations of each compound were made to 1 mg/mL in sterile deionised water.
(§5) The antibiotic adjuvant activity of the SPazaBIMs were evaluated in combination with representative antibiotics (representing 13 antibiotic classes) against the 19 pathogens strains listed in Table 3. To assess the adjuvant properties of the SP-azaBIM molecules, a modified checkerboard minimum inhibitory concentration assay was used. A fixed concentration of the respective antibiotic (susceptible breakpoint concentration) was mixed with a twofold dilution series of the test SP-azaBIM (FIG. 1). This was to determine the concentration of SP-azaBIM needed potentiate the antibiotic at a clinically susceptible breakpoint concentration. Antibiotic susceptible breakpoint concentrations for the respective bacteria were determined using Clinical Laboratory Standards Institute (CLSI) criteria M100 ED31.
(§6) In this study, only those antibiotics to which the bacterial was classed as resistant were included in the adjuvant assays. In this assay we recorded the rescue concentration of the SP-BIM for a respective antibiotic. The rescue concentration was defined as the concentration of the adjuvant that reduces the minimum inhibitory concentration (MIC) of an antibiotic to the susceptibility breakpoint.
(§7) Immediately prior to testing, the respective antibiotic and SP-azaBIM was dissolved in sterile deionised water at 20× the required test concentration. Each microtiter well was then inoculated with 180 μl of bacterial inoculum of 10^6 CFU/ml in ca-MHB, and 10 μl each if the antibiotic and SP-azaBIM was added to the plates. These plates were then incubated at 35° C. for 24 h under aerobic conditions. A similar method was followed for the fastidious pathogens except that they were cultured in ca-MHB with 5% sheep blood and 5% CO2.
(§8) Bacterial growth was visually inspected after the incubation period and the rescue concentration of the test SP-azaBIM was determined as the lowest concentration of the compound needed to reduce bacterial growth by 99.99% at the susceptible breakpoint concentration of the antibiotic. For example, CLSI states that Pseudomonas aeruginosa is susceptible to the Imipenem if the MIC is ≤2 μg mL^−1. If the bacteria can tolerate this concentration in vitro, then the bacteria has an intermediate or absolute resistance toward that antibiotic. […]

[2] = tested on: Enterobacter cloacae ATCC BAA-1143; conditions: E. cloacae ATCC BAA-1143
Protocol: as §1, §2, §3, §4, §5, §6, §7, §8

[3] = tested on: Enterococcus faecalis ATCC 51299; conditions: E. faecalis ATCC 51299
Protocol: as §1, §2, §3, §4, §5, §6, §7, §8

[4] = tested on: Escherichia coli ATCC 35150; conditions: E. coli ATCC 35150
Protocol: as §1, §2, §3, §4, §5, §6, §7, §8

[5] = tested on: Klebsiella pneumoniae ATCC BAA-2814; conditions: K. pneumoniae ATCC BAA-2814
Protocol: as §1, §2, §3, §4, §5, §6, §7, §8

[6] = tested on: Staphylococcus aureus ATCC BAA-2312; conditions: S. aureus ATCC BAA-2312
Protocol: as §1, §2, §3, §4, §5, §6, §7, §8

[7] = tested on: Stenotrophomonas maltophilia MDR 7785; conditions: S. maltophilia MDR 7785
Protocol: as §1, §2, §3, §4, §5, §6, §7, §8

[8] = tested on: Streptococcus pneumoniae ATCC 49619; conditions: S. pneumoniae ATCC 49619
Protocol: as §1, §2, §3, §4, §5, §6, §7, §8

[9] = Amox at susceptible breakpoint 8 μg mL^−1
[10] = Cef at susceptible breakpoint 8 μg mL^−1
[11] = Gen at susceptible breakpoint 4 μg mL^−1
[12] = Imi at susceptible breakpoint 2 μg mL^−1
[13] = Mero at susceptible breakpoint 2 μg mL^−1
[14] = Amp at susceptible breakpoint 8 μg mL^−1
[15] = Azi at susceptible breakpoint 16 μg mL^−1
[16] = Ceph at susceptible breakpoint 8 μg mL^−1
[17] = Chl at susceptible breakpoint 8 μg mL^−1
[18] = Col at susceptible breakpoint 8 μg mL^−1
[19] = Dox at susceptible breakpoint 4 μg mL^−1
[20] = Imi at susceptible breakpoint 1 μg mL^−1
[21] = Tet at susceptible breakpoint 4 μg mL^−1
[22] = Tri at susceptible breakpoint 8 μg mL^−1

## Brc1ccc(C(c2c[nH]c3ncccc23)c2c[nH]c3ncccc23)cc1 [SP-7azaBIM 126, 3,3′-((4-bromophenyl)methylene)bis(1H-pyrrolo[2,3-b]pyridine)]
[1]; [9]
  Rescue concentration, Amox (8): >128 µg/mL
[1]; [10]
  Rescue concentration, Cef (8): >128 µg/mL
[1]; Col at susceptible breakpoint 2 μg mL^−1
  Rescue concentration, Col (2): >128 µg/mL
[1]; [11]
  Rescue concentration, Gen (4): >128 µg/mL
[1]; [12]
  Rescue concentration, Imi (2): >128 µg/mL
[1]; [13]
  Rescue concentration, Mero (2): >128 µg/mL
[1]; Pol B at susceptible breakpoint 2 μg mL^−1
  Rescue concentration, Pol B (2): >128 µg/mL
[2]; [14]
  Rescue concentration, Amp (8): 128 µg/mL
[2]; [15]
  Rescue concentration, Azi (16): >128 µg/mL
[2]; [16]
  Rescue concentration, Ceph (8): >128 µg/mL
[2]; [17]
  Rescue concentration, Chl (8): >128 µg/mL
[2]; [18]
  Rescue concentration, Col (8): >128 µg/mL
[2]; [19]
  Rescue concentration, Dox (4): >128 µg/mL
[2]; [11]
  Rescue concentration, Gen (4): >128 µg/mL
[2]; [20]
  Rescue concentration, Imi (1): >128 µg/mL
[2]; [21]
  Rescue concentration, Tet (4): >128 µg/mL
[3]; [14]
  Rescue concentration, Amp (8): 32 µg/mL
[3]; [17]
  Rescue concentration, Chl (8): >128 µg/mL
[3]; [19]
  Rescue concentration, Dox (4): >128 µg/mL
[3]; Ery at susceptible breakpoint 0.5 μg mL^−1
  Rescue concentration, Ery (0.5): >128 µg/mL
[3]; [22]
  Rescue concentration, Tri (8): >128 µg/mL
[3]; Van at susceptible breakpoint 4 μg mL^−1
  Rescue concentration, Van (4): 64 µg/mL
[4]; [14]
  Rescue concentration, Amp (8): >128 µg/mL
[4]; Cip at susceptible breakpoint 0.25 μg mL^−1
  Rescue concentration, Cip (0.25): >128 µg/mL
[4]; [18]
  Rescue concentration, Col (8): >128 µg/mL
[4]; [19]
  Rescue concentration, Dox (4): >128 µg/mL
[4]; [11]
  Rescue concentration, Gen (4): >128 µg/mL
[4]; [20]
  Rescue concentration, Imi (1): >128 µg/mL
[5]; [9]
  Rescue concentration, Amox (8): >128 µg/mL
[5]; [14]
  Rescue concentration, Amp (8): >128 µg/mL
[5]; Aze at susceptible breakpoint 4 μg mL^−1
  Rescue concentration, Aze (4): >128 µg/mL
[5]; [15]
  Rescue concentration, Azi (16): >128 µg/mL
[5]; Cef at susceptible breakpoint 16 μg mL^−1
  Rescue concentration, Cef (16): >128 µg/mL
[5]; [16]
  Rescue concentration, Ceph (8): >128 µg/mL
[5]; [17]
  Rescue concentration, Chl (8): >128 µg/mL
[5]; [18]
  Rescue concentration, Col (8): >128 µg/mL
[5]; [19]
  Rescue concentration, Dox (4): >128 µg/mL
[5]; [11]
  Rescue concentration, Gen (4): >128 µg/mL
[5]; [20]
  Rescue concentration, Imi (1): >128 µg/mL
[5]; [21]
  Rescue concentration, Tet (4): >128 µg/mL
[6]; Azi at susceptible breakpoint 2 μg mL^−1
  Rescue concentration, Azi (2): >128 µg/mL
[6]; [11]
  Rescue concentration, Gen (4): >128 µg/mL
[6]; Pen at susceptible breakpoint 0.12 μg mL^−1
  Rescue concentration, Pen (0.12): >128 µg/mL
[6]; [22]
  Rescue concentration, Tri (8): >128 µg/mL
[6]; Van at susceptible breakpoint 2 μg mL^−1
  Rescue concentration, Van (2): >128 µg/mL
[7]; [10]
  Rescue concentration, Cef (8): >128 µg/mL
[7]; [16]
  Rescue concentration, Ceph (8): >128 µg/mL
[7]; [17]
  Rescue concentration, Chl (8): >128 µg/mL
[7]; Cip at susceptible breakpoint 2 μg mL^−1
  Rescue concentration, Cip (2): >128 µg/mL
[7]; [11]
  Rescue concentration, Gen (4): >128 µg/mL
[7]; [12]
  Rescue concentration, Imi (2): 16 µg/mL
[7]; [13]
  Rescue concentration, Mero (2): 32 µg/mL
[7]; Tri at susceptible breakpoint 2 μg mL^−1
  Rescue concentration, Tri (2): >128 µg/mL
[8]; Amox at susceptible breakpoint 2 μg mL^−1
  Rescue concentration, Amox (2): >128 µg/mL
[8]; Ery at susceptible breakpoint 0.25 μg mL^−1
  Rescue concentration, Ery (0.25): >128 µg/mL
[8]; Imi at susceptible breakpoint 0.12 μg mL^−1
  Rescue concentration, Imi (0.12): >128 µg/mL
